Test systems include SK-MEL-5; MOLT-4; SF-295; SK-MEL-28; HCT-116; NCI-H460; SK-MEL-2; NCI-H226; TK-10; HOP-62; HCT-15; SN12C; EKVX; OVCAR-3; SF-268; U-251; MDA-MB-435; MDA-N; DU-145.
Assay in all cases: NCI tumour cell line growth inhibition, 48 h

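Results reflect a 48-hour exposure of cells in 96-well plates to compound at five concentrations. Here, GI50 denotes the concentration required for 50% inhibition of growth.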 Calls of active or inactive are those of the source. Cut-off read from the data, not from the text of the source: active = GI50 up to about 1.1 µM and inactive = higher.

With `CCOC(=O)C(C)(C)Oc1ccc2c(-c3ccc(Cl)cc3)c(-c3ccc(Cl)cc3)c(=O)oc2c1`, the GI50 in the experiment with SK-MEL-5 was 98.2 µM (inactive); in the experiment with MOLT-4 it was > 100 µM (inactive); in the experiment on SF-295, > 100 µM (inactive); in the experiment on SK-MEL-28 it was > 100 µM (inactive); with HCT-116, 89.5 µM (inactive); with NCI-H460, > 100 µM (inactive). Besides, the GI50 in the experiment on SK-MEL-2 was > 100 µM (inactive); in the experiment with NCI-H226, 62.2 µM (inactive); in the experiment on TK-10 it was > 100 µM (inactive); with HOP-62, > 100 µM (inactive); with HCT-15, more than 100 µM; with SN12C, > 100 µM (inactive). Further, the GI50 in the experiment with EKVX, in the experiment with OVCAR-3, with SF-268 and in the experiment with U-251 was > 100 µM (inactive) in each case.

For the molecule `CCOc1ccccc1Nc1nc(C)c(C(=O)CC(=O)C(=O)Nc2ccccc2)s1`, the GI50 with SK-MEL-5 was 49.2 µM (inactive); in the experiment on MOLT-4, 23.8 µM (inactive); with SF-295, 54.1 µM (inactive); in the experiment with SK-MEL-28 it was > 100 µM (inactive); with HCT-116 it was 51.8 µM (inactive); with NCI-H460, 49.7 µM (inactive). Further, the GI50 in the experiment on SK-MEL-2 is 37.3 µM (inactive); in the experiment with NCI-H226, 24.3 µM (inactive); in the experiment on TK-10, 73.8 µM (inactive); in the experiment with HOP-62, > 100 µM (inactive); in the experiment on HCT-15, 41.9 µM; in the experiment with SN12C, 34.8 µM (inactive). Besides, the GI50 is 42.4 µM (inactive) in the experiment on EKVX, 22.2 µM (inactive) in the experiment on OVCAR-3, > 100 µM (inactive) in the experiment on SF-268 and 36.6 µM (inactive) with U-251.

On to `CC1(OCc2ccccc2)C(=O)N2C1N(C(=O)OCc1ccccc1)CC2(C)C` (stereo not drawn), for which the GI50 in the experiment with SK-MEL-5 is 17.9 µM (inactive); in the experiment with MOLT-4, 28.2 µM (inactive); in the experiment with SF-295 it was 38.5 µM (inactive); in the experiment with SK-MEL-28, > 100 µM (inactive); with HCT-116 it was 69.8 µM (inactive); with NCI-H460 it was 42.6 µM (inactive). The GI50 is 69.3 µM (inactive) with SK-MEL-2; 41.4 µM (inactive) in the experiment on NCI-H226; > 100 µM (inactive) with TK-10; 82.4 µM (inactive) in the experiment on HOP-62; 68.1 µM in the experiment with HCT-15; > 100 µM (inactive) with SN12C. The GI50 in the experiment with EKVX is 67.8 µM (inactive); in the experiment on OVCAR-3, > 100 µM (inactive); with SF-268, > 100 µM (inactive); in the experiment with U-251, 49.3 µM (inactive).

Consider `CCOC(=O)C(C)(C)Oc1ccc2c(-c3ccccc3)cc(=O)oc2c1`, for which the GI50 with SK-MEL-5 was 13.9 µM (inactive); with MOLT-4 it was 20.2 µM (inactive); in the experiment on SF-295, 40.9 µM (inactive); with SK-MEL-28, 35.6 µM (inactive); in the experiment with HCT-116, 35.6 µM (inactive); with NCI-H460, > 100 µM (inactive). Also, the GI50 is 22.6 µM (inactive) with SK-MEL-2; 33.3 µM (inactive) in the experiment on NCI-H226; 56.8 µM (inactive) with TK-10; 23.1 µM (inactive) in the experiment on HOP-62; 31.8 µM with HCT-15; 37 µM (inactive) in the experiment with SN12C. Further, the GI50 is 43 µM (inactive) in the experiment on EKVX, 33.9 µM (inactive) in the experiment with OVCAR-3, 45.8 µM (inactive) in the experiment on SF-268 and 36.3 µM (inactive) in the experiment on U-251.

In the case of `O=C(O)Cn1nnc2c(=O)[nH][nH]c(=O)c21`, the GI50 was > 100 µM (inactive) with SK-MEL-5; > 10 µM (inactive) in the experiment with MOLT-4; > 100 µM (inactive) in the experiment with SF-295; > 100 µM (inactive) in the experiment on SK-MEL-28; > 100 µM (inactive) with HCT-116; > 100 µM (inactive) with NCI-H460. For the same molecule, the GI50 with MDA-MB-435, in the experiment on SK-MEL-2, with TK-10, in the experiment on MDA-N, in the experiment with HOP-62 and with DU-145 was > 100 µM (inactive) each time. In addition, the GI50 was more than 100 µM in the experiment with HCT-15; > 100 µM (inactive) in the experiment on SN12C; > 100 µM (inactive) in the experiment on EKVX; > 100 µM (inactive) in the experiment on OVCAR-3; > 100 µM (inactive) in the experiment with U-251.

Turning to `NNC(=O)C(=O)N/N=C1/CCCC1C(=O)CCC(=O)Nc1ccc(Cl)cc1` (stereo not drawn), the GI50 in the experiment on SK-MEL-5, in the experiment on MOLT-4, in the experiment with SF-295, with SK-MEL-28, with HCT-116 and with NCI-H460 was > 100 µM (inactive) in each case. The GI50 in the experiment on SK-MEL-2 was 24.4 µM (inactive); in the experiment with NCI-H226, > 100 µM (inactive); in the experiment on TK-10 it was > 100 µM (inactive); with HOP-62, > 100 µM (inactive); with HCT-15, 12.2 µM; in the experiment with SN12C, > 100 µM (inactive). Further, the GI50 in the experiment on EKVX, in the experiment on OVCAR-3, with SF-268 and in the experiment with U-251 was > 100 µM (inactive) in each case.

Regarding `Cc1cccc(C(C)C)c1NC(=O)CCl`, the GI50 in the experiment with SK-MEL-5 was 91.4 µM (inactive); in the experiment with MOLT-4 it was 63.7 µM (inactive); with SF-295, 92 µM (inactive); in the experiment with SK-MEL-28 it was > 100 µM (inactive); in the experiment with HCT-116 it was 50.2 µM (inactive); in the experiment on NCI-H460 it was 64.6 µM (inactive). For the same molecule, the GI50 in the experiment on SK-MEL-2 was 75.5 µM (inactive); in the experiment with NCI-H226, > 100 µM (inactive); with TK-10, > 10 µM (inactive); with HOP-62 it was 41.9 µM (inactive); in the experiment on HCT-15, 90.4 µM; in the experiment on SN12C, 56.2 µM (inactive). Besides, the GI50 was 20.6 µM (inactive) in the experiment with EKVX, 19.1 µM (inactive) with OVCAR-3, 38 µM (inactive) in the experiment on SF-268 and 40.7 µM (inactive) in the experiment with U-251.

Regarding `CN(C)CCNC(=O)c1cccc2c1nc(-c1ccc(F)cc1)c1ccccc12`, the GI50 is 2.34 µM (inactive) with SK-MEL-5; 0.232 µM (active) with MOLT-4; 6.05 µM (inactive) in the experiment with SF-295; 7.76 µM (inactive) in the experiment with SK-MEL-28; 2.46 µM (inactive) in the experiment with HCT-116; 0.417 µM (active) in the experiment with NCI-H460. Moreover, the GI50 with SK-MEL-2 was 10.3 µM (inactive); with NCI-H226 it was 2.06 µM (inactive); in the experiment with TK-10, 4.03 µM (inactive); in the experiment with HOP-62, 1.22 µM (inactive); with HCT-15, 2.67 µM; in the experiment with SN12C, 2.77 µM (inactive). Besides, the GI50 is 9.38 µM (inactive) with EKVX, 5.58 µM (inactive) with OVCAR-3, 6.58 µM (inactive) with SF-268 and 3.18 µM (inactive) in the experiment on U-251.

Regarding `CC(=O)/C(=N\O)C(=O)NCc1ccccc1`, the GI50 in the experiment on SK-MEL-5 was > 100 µM (inactive); with MOLT-4, > 100 µM (inactive); with SF-295, > 100 µM (inactive); in the experiment with SK-MEL-28, > 100 µM (inactive); in the experiment with HCT-116, > 100 µM (inactive); in the experiment with NCI-H460, 35.2 µM (inactive). Besides, the GI50 is > 100 µM (inactive) in the experiment on SK-MEL-2; > 100 µM (inactive) in the experiment with NCI-H226; > 100 µM (inactive) in the experiment with TK-10; > 100 µM (inactive) with HOP-62; 35.9 µM in the experiment with HCT-15; > 100 µM (inactive) with SN12C. In addition, the GI50 in the experiment with EKVX, in the experiment on OVCAR-3, in the experiment with SF-268 and in the experiment with U-251 was > 100 µM (inactive) each time.

For `COc1cccc(NC(=O)c2c(SC)c(C#N)c(=O)n(N)c2N)c1`, the GI50 in the experiment on SK-MEL-5 is 64.9 µM (inactive); with MOLT-4, 41.8 µM (inactive); in the experiment with SF-295, 34.2 µM (inactive); with SK-MEL-28, > 100 µM (inactive); in the experiment on HCT-116 it was 35.2 µM (inactive); with NCI-H460, 67.1 µM (inactive). The GI50 in the experiment on MDA-MB-435 is 97.5 µM (inactive); in the experiment with SK-MEL-2, > 100 µM (inactive); in the experiment with NCI-H226, > 100 µM (inactive); with TK-10 it was > 100 µM (inactive); with MDA-N, > 100 µM (inactive); in the experiment with HOP-62, 50.9 µM (inactive). In addition, the GI50 with HCT-15 is 66.2 µM; with SN12C, > 100 µM (inactive); in the experiment on EKVX, > 100 µM (inactive); in the experiment with SF-268, 72.1 µM (inactive); in the experiment on U-251, 68.4 µM (inactive).

As for `CC(C)CC(NC(=O)C(CSc1ccc([N+](=O)[O-])cc1)Cc1ccccc1)C(=O)Nc1ccccc1` (stereo not drawn), the GI50 with SK-MEL-5 is 64.3 µM (inactive); with MOLT-4, 59 µM (inactive); in the experiment on SF-295 it was 39.1 µM (inactive); with SK-MEL-28, 98.2 µM (inactive); in the experiment on HCT-116, > 100 µM (inactive); with NCI-H460, 49.8 µM (inactive). The GI50 is > 100 µM (inactive) with MDA-MB-435; > 100 µM (inactive) in the experiment with SK-MEL-2; 58.2 µM (inactive) in the experiment on TK-10; > 100 µM (inactive) in the experiment on MDA-N; 89.3 µM (inactive) in the experiment on DU-145; more than 100 µM in the experiment on HCT-15. The GI50 in the experiment on SN12C, with EKVX, in the experiment with OVCAR-3 and with U-251 was > 100 µM (inactive) each time.

As for `CC(=O)O[C@@]12CO[C@@H]1C[C@H](O)[C@@]1(C)C(=O)[C@H](O)C3=C(C)[C@@H](OC(=O)[C@H](O)[C@@H](NC(=O)OC(C)(C)C)c4ccccc4)C[C@@](O)([C@@H](OC(=O)c4ccccc4)[C@H]21)C3(C)C` [DOCETAXEL], the GI50 in the experiment with SK-MEL-5 is < 0.01 µM (active); in the experiment with MOLT-4 it was < 0.0631 µM (active); with SF-295, 0.0107 µM (active); with HCT-116, < 0.01 µM (active); with NCI-H460 it was 0.00291 µM (active); in the experiment on MDA-MB-435, 0.000149 µM (active). Besides, the GI50 with TK-10 is 0.225 µM (active); in the experiment on MDA-N, 0.0001 µM (active); in the experiment on HOP-62, < 0.01 µM (active); in the experiment with HCT-15, 0.0493 µM; in the experiment with SN12C, < 0.01 µM (active); in the experiment on EKVX, 3.72 µM (inactive). The GI50 in the experiment with OVCAR-3, in the experiment with SF-268 and in the experiment on U-251 was < 0.01 µM (active) each time.
